{"source": "paper PMC6158327", "about": "“Negative Allosteric Modulators of mGlu7 Receptor as Putative Antipsychotic Drugs” (Frontiers in Molecular Neuroscience, 2018)", "key": {"[1]": {"tested_on": "prepulse-induced inhibition of the acoustic startle response", "experiment": "Prepulse inhibition of the acoustic startle response", "type": "in vivo, Wistar rats", "conditions": "MK-801 0.3 mg/kg, rats", "procedure": "The procedure was performed according to [Czyrak et al., 2003]. On the day before the experiment, the animals were subjected to a single startle session consisting of two trials, each presented 20 times during the session. During the first trial, a 120 dB, 40 ms pulse was presented, and on the second trial this pulse was preceded by a 75 dB, 20 ms prepulse. On the day of the experiment, the animals were habituated to the background white noise (65 dB) for 5 min (which continued throughout the test), after that the startle session was carried out as described above. Startle response amplitude was defined as the difference between the maximum force detected during a recording window and the force measured immediately before the stimulus onset (the threshold was set at 10 g). For each animal, the amplitudes were averaged separately for each type of trial. The PPI was calculated as the difference between the amplitudes of the pulse (P) and the prepulse + pulse (PP+P), divided by the amplitude of the pulse alone [([P - (PP + P)]/P)×100]."}, "mGlu7 receptor [2]": {"molecular_target": "T1, mGlu7 receptor (Homo sapiens, UniProt Q14831)", "T1 construct": "expressed in transfected cells", "T1 sequence (Q14831 35-915)": "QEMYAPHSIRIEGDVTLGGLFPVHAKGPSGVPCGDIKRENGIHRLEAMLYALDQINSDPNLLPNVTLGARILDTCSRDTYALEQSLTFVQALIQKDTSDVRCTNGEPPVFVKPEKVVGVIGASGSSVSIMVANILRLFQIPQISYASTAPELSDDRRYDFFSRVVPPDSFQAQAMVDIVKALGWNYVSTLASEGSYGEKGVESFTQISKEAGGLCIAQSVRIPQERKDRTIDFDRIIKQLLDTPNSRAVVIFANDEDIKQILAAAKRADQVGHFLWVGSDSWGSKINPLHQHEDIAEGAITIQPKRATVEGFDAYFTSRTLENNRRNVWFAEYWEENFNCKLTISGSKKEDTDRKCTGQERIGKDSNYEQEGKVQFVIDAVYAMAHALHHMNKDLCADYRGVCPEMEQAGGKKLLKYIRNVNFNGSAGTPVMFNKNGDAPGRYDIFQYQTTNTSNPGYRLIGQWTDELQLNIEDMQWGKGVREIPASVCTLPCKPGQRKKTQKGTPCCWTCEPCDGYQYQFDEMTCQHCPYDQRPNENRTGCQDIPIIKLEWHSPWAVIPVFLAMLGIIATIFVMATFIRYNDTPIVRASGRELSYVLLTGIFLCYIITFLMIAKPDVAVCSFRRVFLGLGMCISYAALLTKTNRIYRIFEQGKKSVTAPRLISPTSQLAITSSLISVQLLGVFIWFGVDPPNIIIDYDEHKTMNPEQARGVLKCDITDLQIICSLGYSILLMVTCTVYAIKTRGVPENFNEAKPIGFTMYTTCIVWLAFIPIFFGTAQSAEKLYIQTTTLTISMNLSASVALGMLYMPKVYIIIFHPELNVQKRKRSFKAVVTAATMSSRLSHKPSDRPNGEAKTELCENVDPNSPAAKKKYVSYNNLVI", "experiment": "HTRF cAMP assay: antagonism of L-Glu (EC80) inhibition of forskolin-stimulated cAMP accumulation (NAM profile)", "type": "cell-based", "conditions": "inhibition of forskolin-stimulated cAMP accumulation", "procedure": "(§1) A homogeneous time-resolved fluorescence (HTRF) cAMP dynamic 2 (Cisbio, Codolet, France) assay was performed as previously described ([Chruścicka et al., 2015]) with recombinant cell lines. Briefly, HEK 293 T-REx cells stably expressing mGlu7 receptor, were collected and suspended in Hanks-HEPES buffer. The cell suspension was added to compounds solution with 5 μM of forskolin (final concentration). After 5 min incubation in 37°C, 5 μl of cAMP-d2 conjugate in lysis buffer was added and mixed with the 10 μl cell suspension by means of an automated pipetting system (Tecan Evo 200, Tecan, Mannedorf, Switzerland). Next, 5 μl anti-cAMP cryptate conjugate was added and the fluorescence at 620 and 665 nm was read after 1 h (Tecan Infinite M1000). The results are shown as the 665 nm/620 nm ratio multiplied by 10^4. The detected signal was inversely proportional to the concentration of cAMP in the sample. […] Each experiment was performed three times (n = 3), and each data point was in triplicate."}, "mGlu7": {"molecular_target": "mGlu7", "design": "method as in Wright et al., 2000", "conditions": "ref Wright et al., 2000; read-out: Ki (affinity of mGlu7 for glutamate); cited from earlier work"}, "mGlu7 receptor [3]": {"molecular_target": "T1, mGlu7 receptor", "experiment": "HTRF cAMP assay: potentiation of forskolin action without agonist (inverse agonist properties)", "type": "cell-based", "conditions": "T-REx 293 cells, 5 μM forskolin", "procedure": "as §1\nBoth compounds dose-dependently potentiated forskolin action, elevating cAMP concentration in the T-REx 293 cells (Figure 2B). […] This effect was not observed for an antagonist of mGluR7 – XAP044."}}, "note": "Where a name gives a salt, the structure may show the parent alone.", "data": [{"smiles": "C[C@]12N[C@H](Cc3ccccc31)c1ccccc12", "note": "[MK-801, (5S,10R)-(+)-5-Methyl-10,11-dihydro-5H-dibenzo[a,d]cyclo-hepten-5,10-imine maleate]", "values": [{"measurement": "Prepulse-induced inhibition of the acoustic startle response after MK-801", "setting": "[1]", "result": "16 % of control"}]}, {"smiles": "N[C@@H](CCC(=O)O)C(=O)O", "note": "[L-Glu]", "values": [{"measurement": "L-Glu EC80 concentration", "setting": "mGlu7 receptor [2]", "result": 6260, "unit": "µM"}, {"measurement": "Ki", "setting": "mGlu7", "result": 869, "unit": "µM"}]}, {"smiles": "O=c1c(Oc2ccc(I)cc2)coc2cc(O)ccc12", "note": "[XAP044]", "values": [{"measurement": "Potentiation of forskolin action (inverse agonist effect)", "setting": "mGlu7 receptor [3]", "result": "not observed"}]}]}
